What was measured:
[1] = system: rats with focal cerebral ischemia (MCAO)/reperfusion; assay: Prophylactic administration, cerebral ischemia-reperfusion injury (MCAO/R) in rats; type: in vivo; settings: 6 mg/kg tail vein, Mean ± SD, n = 8
Procedure: Experimental methods: SD rats were randomly divided into 6 groups, set as sham group, model control group, positive control drug ozagrel (6 mg/kg) group, and test drug compound 1-1 high (9 mg/kg), medium (3 mg/kg), and low (1 mg/kg) dose group. The administered groups were preadministered by tail vein injection, and the sham and model control groups were given an equal volume of saline, once a day for 3 consecutive days. Ten minutes after the last administration, the rat MCAO/R model was established, and reperfusion was performed 2 h after ischemia. 24 h after MCAO reperfusion, neurobehavioral scores were performed to determine the neurological function of rats; 2,3,5-triphenyltetrazolium chloride (TTC) staining method was used to determine the rate of cerebral infarction and cerebral water content in rats.

[2] = system: rats with autologous thrombus and thrombin-induced cerebral ischemic injury; assay: Ischemic brain injury induced by autologous thrombus and thrombin in rats (i.v., alone or with urokinase); type: in vivo, SD rats; settings: n = 10
Procedure: Experimental Methods: A model of cerebral ischemic injury in SD rats was prepared by embolizing the middle cerebral artery of rats with autologous thrombus and thrombin via the external carotid artery to the internal carotid artery and the rats were randomly divided into 5 groups according to behavioral scores, a sham group (only the external carotid artery was isolated); a model-control group (saline was given to both groups in equal volume); urokinase (5000 U/kg) group; compound 1-1 ([…]) group; with 20 animals in each group (10 for detecting the rate of cerebral infarction, and the other 10 for pathological testing). Each group was administered slowly in the tail vein (1 ml per minute) 2 h after modeling, and the decrease in blood flow was monitored after thrombin injection and 120 min after administration. Neurobehavioral scoring was performed on the rats after 24 h to determine the neurological function of the rats; 2,3,5-triphenyltetrazolium chloride (TTC) staining was used to determine the rate of cerebral infarction and cerebral water content, and hematoxylin-eosin (HE) staining was used to observe the pathological damage of the brain in rats administered with the drug 2 h after cerebral ischemia.

Row | Compound | Cerebral infarction rate (%) ([1]; 3 days before MCAO/R, 24 h after reperfusion) | behavioral score ([1]; MCAO/R) | cerebral water content (%) ([1]; MCAO/R) | Cerebral infarction rate ([2]; 5000 U/kg i.v., TTC staining, mean ± S.D.) | behavioral score ([2]; 5000 U/kg i.v., after 24 h, Mean ± SD) | cerebral water content (%) ([2]; 5000 U/kg i.v., mean ± S.D.) | Percentage decrease two hours after administration (%) ([2]; cerebral blood flow, 5000 U/kg i.v. 2 h after modeling, Mean ± SD) | Percentage decrease after thrombin injection (%) ([2]; cerebral blood flow, before administration, 5000 U/kg group, Mean ± SD) | Pathology Score ([2]; cerebral ischemic areas, 5000 U/kg i.v., mean ± SD)
1 | O=C(O)/C=C/c1ccc(Cn2ccnc2)cc1 [Ozagrel, ozagrel, reference compound] | 17.07 ± 10.69 | 1.50 ± 0.76 | 81.00 ± 0.98 |  |  |  |  |  | 
2 | Urokinase |  |  |  | 9.72 ± 9.89 | 1.60 ± 0.70 | 79.78 ± 0.72 | 37.12 ± 4.49 | 50.10 ± 7.94 | 1.75 ± 0.86

— US20250066310A1, “MULTI-SUBSTITUTED URACIL DERIVATIVE AND PREPARATION METHOD THEREFOR AND APPLICATION THEREOF” (HANGZHOU ADAMERCK PHARMLABS INC., priority 2021, published 2025)
